Experiments:
[1] = target: T1, proteasome subunit beta 5 of E. multilocularis (EmPSMB5, EmuJ_000590200_1) (Echinococcus multilocularis, UniProt A0A068Y5K9); experiment: biochemical
T1 sequence (A0A068Y5K9 66-269): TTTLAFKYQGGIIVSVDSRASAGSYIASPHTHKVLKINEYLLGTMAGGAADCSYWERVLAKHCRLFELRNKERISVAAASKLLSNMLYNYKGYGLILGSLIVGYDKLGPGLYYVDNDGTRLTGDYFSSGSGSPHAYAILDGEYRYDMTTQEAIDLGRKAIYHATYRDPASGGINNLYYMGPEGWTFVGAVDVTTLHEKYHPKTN

bovine chymotrypsin = bovine chymotrypsin (Bos taurus, UniProt P00766); experiment: in-gel fluorescent zymography with SLLVT-AMC, chymotrypsin […] ng per lane, single BTZ concentration; format: biochemical

In the case of `CC(C)C[C@H](NC(=O)[C@H](Cc1ccccc1)NC(=O)c1cnccn1)B(O)O` [BTZ, bortezomib], the IC50 [1] is reported as 760 nM and the “in-gel fluorescent zymography with SLLVT-AMC, chymotrypsin 5 ng per lane, single” value (bovine chymotrypsin) is reported as “BTZ can inhibit also other targets, such as for example chymotrypsin (as shown in the control of Figure 7B)”.
